In patent publication US20030044399A1, “Method of treatment” (SmithKline Beecham Corporation, priority 1998, published 2003):

Assays:
Cruzain = Cruzain (Trypanosoma cruzi, UniProt P25779); test: Cysteine protease inhibition, progress curve method, cruzain; format: biochemical; conditions: 4 uM Ac-Lys-Glu-Lys-Leu-Arg-AMC, 100 mM Na acetate pH 5.5, 5 mM cysteine; read-out: Cruzain Ki
How it was run: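 Buffer was 100 mM sodium acetate pH 5.5 with 5 mM cysteine and 2% DMSO, at ambient temperature; reactions started with enzyme, and AMC formation was followed for 20–30 min. Substrates: Leishmania and Schistosoma, 10 uM Cbz-Phe-Arg-AMC; falcipain, 10 uM Cbz-Leu-Arg-AMC; cruzain, 4 uM Ac-Lys-Glu-Lys-Leu-Arg-AMC. Linear curves gave Ki,app; curved ones gave kobs/[I].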

Rhodazain = Rhodazain (Trypanosoma brucei rhodesiense, UniProt Q95PM0); test: Cysteine protease inhibition, progress curve method, rhodazain; format: biochemical, Trypanosoma brucei rhodesiensi; conditions: Rhodazain Ki (nM), 10 uM Cbz-Leu-Arg-AMC, 100 mM Na acetate pH 5.5, 5 mM cysteine
Rhodazain, sequence (Q95PM0 entry or part of it): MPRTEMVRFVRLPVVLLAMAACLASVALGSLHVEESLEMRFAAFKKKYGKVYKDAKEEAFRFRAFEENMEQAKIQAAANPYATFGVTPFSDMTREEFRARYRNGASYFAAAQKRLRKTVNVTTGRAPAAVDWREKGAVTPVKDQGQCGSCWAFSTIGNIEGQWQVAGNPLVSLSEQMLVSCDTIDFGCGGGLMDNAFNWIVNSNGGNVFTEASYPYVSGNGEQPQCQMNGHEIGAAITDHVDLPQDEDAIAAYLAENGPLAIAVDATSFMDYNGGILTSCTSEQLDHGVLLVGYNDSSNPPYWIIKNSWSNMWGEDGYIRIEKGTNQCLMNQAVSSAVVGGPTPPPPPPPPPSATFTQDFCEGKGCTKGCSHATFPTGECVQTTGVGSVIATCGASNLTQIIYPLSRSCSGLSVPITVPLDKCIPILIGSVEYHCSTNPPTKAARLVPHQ

Falcipain 2 = Falcipain 2 (Plasmodium falciparum, UniProt Q8I6U4); test: Cysteine protease inhibition, progress curve method, falcipain; format: biochemical; conditions: 10 uM Cbz-Leu-Arg-AMC, 100 mM Na acetate pH 5.5, 5 mM cysteine
Falcipain 2, sequence (Q8I6U4 244-484): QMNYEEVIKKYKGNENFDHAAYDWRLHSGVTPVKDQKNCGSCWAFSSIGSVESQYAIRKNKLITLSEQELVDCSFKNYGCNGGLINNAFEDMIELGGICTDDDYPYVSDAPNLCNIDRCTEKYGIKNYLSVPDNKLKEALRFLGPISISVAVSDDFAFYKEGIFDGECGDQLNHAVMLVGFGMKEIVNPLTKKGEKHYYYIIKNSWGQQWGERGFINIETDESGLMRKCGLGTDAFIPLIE
Procedure: Standard assay conditions for the determination of kinetic constants used 10 uM fluorogenic peptide substrate, Cbz-Phe-Arg-AMC for the cysteine proteases from Leishmania spp and Schistosoma Mansoni, Cbz-Leu-Arg-AMC for the cysteine proteases from Plasmodium falciparum and Trypanosoma brucei rhodesiensi, and Ac-Lys-Glu-Lys-Leu-Arg-AMC (4 uM final substrate concentration) for the cysteine protease from Trypoanosoma cruzi, and were determined in 100 mM Na acetate at pH 5.5 containing 5 mM cysteine. Stock substrate solutions were prepared at concentrations of […] in DMSO with 10 uM (4 uM for Ac-Lys-Glu-Lys-Leu-Arg-AMC) final substrate concentration in the assays. The final DMSO concentration was 2% and the final volume was 100 uL. All assays were conducted at ambient temperature. Product progress curves were generated over 20 to 30 minutes following formation of AMC product.
Potential inhibitors were evaluated using the progress curve method. Assays were carried out in the presence of variable concentrations of test compound. Reactions were initiated by addition of enzyme to buffered solutions of inhibitor and substrate. Data analysis was conducted according to one of two procedures depending on the appearance of the progress curves in the presence of inhibitors. For those compounds whose progress curves were linear, apparent inhibition constants (Ki,app) were calculated according to equation 1 (Brandt et al., Biochemitsry, 1989, 28, 140):
v=VmA/[Ka(1+I/Ki,app)+A] (1)
Where v is the velocity of the reaction with maximal velocity Vm, A is the concentration of substrate with Michaelis constant of Ka, and I is the concentration of inhibitor.
[AMC]=vsst+(v0−vss)[1−exp (−kobst)]/kobs (2)
Where [AMC] is the concentration of product formed over time t, v0 is the initial reaction velocity and vss is the final steady state rate. Values for kobs were then analyzed as a linear function of inhibitor concentration to generate an apparent second order rate constant (kobs/inhibitor concentration or kobs/[I]) describing the time-dependent inhibition. A complete discussion of this kinetic treatment has been fully described (Morrison et al., Adv. Enzymol. Relat. Areas Mol. Biol., 1988, 61, 201).
Exemplary inhibition data for the compounds used in the present method collected in accordance with the above-described procedure are listed in Table I.

Cruzain, sequence (P25779 123-337): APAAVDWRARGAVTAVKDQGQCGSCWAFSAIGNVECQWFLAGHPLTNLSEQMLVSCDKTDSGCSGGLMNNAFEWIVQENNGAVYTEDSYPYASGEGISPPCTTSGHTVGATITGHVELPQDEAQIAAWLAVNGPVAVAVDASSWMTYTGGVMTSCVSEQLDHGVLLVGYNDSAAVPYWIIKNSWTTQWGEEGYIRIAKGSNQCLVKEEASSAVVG

Row | Structure (SMILES) | Ki (Cruzain) [nM] | Ki (Rhodazain) [nM] | Ki (Falcipain 2) [nM]
1 | CC(C)C[C@@H](NC(=O)c1cc2ccccc2o1)C(=O)NC1CCCN(S(=O)(=O)c2ccccn2)CC1=O (single isomer, unassigned) [Example 21] | 3.8 | 3.2 | 10
2 | Cc1oc(-c2ccccc2)nc1C(=O)N[C@H](CC(C)C)C(=O)NC1CCCN(S(=O)(=O)c2cccc[n+]2[O-])CC1=O (stereo partly drawn) [Example 117, 5-Methyl-2-phenyl-oxazole-4-carboxylic acid {(S)-3-methyl-1-[3-oxo-1-(1-oxy-pyridine-2-sulfonyl)-azepan-4-ylcarbamoyl]-butyl}amide] | 14 |  | 6.8
3 | CC(C)C[C@@H](NC(=O)c1cc2cc(OCCN3CCNCC3)ccc2o1)C(=O)N[C@@H]1CCCN(S(=O)(=O)c2ccccn2)CC1=O [Example 23, 5-(2-Piperizin-1-yl-ethoxy)-benzofuran-2-carboxylic acid {(S)-3-methyl-1-[3-oxo-1-(pyridine-2-sulfonyl)-azepan-4-ylcarbamoyl]-3-butyl}-amide] |  |  | 14
4 | COc1ccc2oc(C(=O)N[C@H](CC(C)C)C(=O)N[C@@H]3CCCN(S(=O)(=O)c4ncccc4C)CC3=O)cc2c1 (stereo in doubt) [Example 162, 5-Methoxy-benzofuran-2-carboxylic acid {(S)-3-methyl-1-[1-(3-methyl-pyridine-2-sulfonyl)-3-oxo-azepan-4-ylcarbamoyl]-butyl}amide] | 2.7 | 2.5 | 6.1
5 | CC(C)C[C@@H](NC(=O)c1cc2ccccc2s1)C(=O)N[C@@H]1CCCN(S(=O)(=O)c2cccc[n+]2[O-])CC1=O [Example 46, Benzo[b]thiophene-2-carboxylic acid {(S)-3-methyl-1-[3-oxo-1-(1-oxy-pyridine-2-sulfonyl)-azepan-4-ylcarbamoyl]-butyl}amide] | 6.1 |  | 5.3
6 | CC(C)C[C@@H](NC(=O)c1cc2cc(OCCN3CCCCC3)ccc2o1)C(=O)N[C@@H]1CCCN(S(=O)(=O)c2ccccc2)CC1=O (stereo in doubt) [Example 9, 5-(2-Piperidin-1-yl-ethoxy)-benzofuran-2-carboxylic acid [(S)-1-(1-benzenesulfonyl-3-oxo-azepan-4-ylcarbamoyl)-3-methyl-butyl]amide] |  |  | 65
7 | [2H]C1(NC(=O)C(CC(C)C)NC(=O)c2cc3ccccc3o2)CCCN(S(=O)(=O)c2ccccn2)C([2H])([2H])C1=O [Example 100, Benzofuran-2-carboxylic acid {(S)-3-methyl-1-[(2,2′,4-tridueterio)-3-oxo-1-(pyridine-2-sulfonyl)-azepan-4-ylcarbamoyl]-butyl}amide] |  | 2.5 | 6.4
8 | CC(C)C[C@@H](NC(=O)c1ccc([N+](=O)[O-])o1)C(=O)N[C@@H]1CCCN(S(=O)(=O)c2ccccn2)CC1=O (stereo in doubt) [Example 35, 5-Nitro-furan-2-carboxylic acid {(S)-3-methyl-1-[3-oxo-1-(pyridine-2-sulfonyl)-azepan-4-ylcarbamoyl]-butyl}amide] |  |  | 96
9 | CC(C)C[C@@H](NC(=O)c1ccc2cc[nH]c2c1)C(=O)N[C@@H]1CCCN(S(=O)(=O)c2ccccn2)CC1=O (stereo in doubt) [Example 58, 1H-Indole-6-carboxylic acid {(S)-3-methyl-1-[3-oxo-1-(pyridine-2-sulfonyl)-azepan-4-ylcarbamoyl]-butyl}amide] |  | 3.1 | 7.1
10 | COc1cccc(S(=O)(=O)N2CCC[C@H](NC(=O)[C@H](CC(C)C)NC(=O)c3cc4cccc(OC)c4o3)C(=O)C2)c1 [Example 138, 7-Methoxy-benzofuran-2-carboxylic acid-{(S)-1-[1-(3-methoxy-benzenesulfonyl)-3-oxo-azepan-4-ylcarbamoyl]-3-methyl-butyl}-amide] |  |  | 5.6
11 | COc1ccc2oc(C(=O)N[C@H](CC(C)C)C(=O)N[C@@H]3CCCN(S(=O)(=O)c4ccccn4)CC3=O)cc2c1 (single isomer, unassigned) [Example 69] |  | 2.2 | 5.6
12 | COc1ccc(S(=O)(=O)N2CCCC(NC(=O)C(CC(C)C)NC(=O)c3ccc4c(c3)OCO4)C(=O)C2)cc1 (stereo in doubt) [Example 73, Benzo[1,3]dioxole-5-carboxylic acid {(S)-1-[1-(4-methoxy-benzenesulfonyl)-3-oxo-azepan-4-ylcarbamoyl]-3-methyl-butyl}-amide] |  |  | 5.2
13 | CC(C)C[C@@H](NC(=O)c1cc2cc(OCCN3CCOCC3)ccc2o1)C(=O)N[C@@H]1CCCN(C(=O)Nc2ccccc2)CC1=O [Example 5, 4-((S)-4-Methyl-2-{[5-(2-morpholino-4-yl-ethoxy)-benzofuran-2-carbonyl]amino}-pentanoylamino)-3-oxo-azepane-1-carboxylic acid phenylamide] |  |  | 34
14 | CC(C)C[C@@H](NC(=O)c1cc2cc(OCCN3CCOCC3)ccc2o1)C(=O)NC1CCCN(C(=O)Cc2cccc(-c3ccccn3)c2)CC1=O (stereo partly drawn) [Example 3, 5-(2-morpholino-4-yl-ethoxy)-benzofuran-2-carboxylic acid ((S)-3-methyl-1-{3-oxo-1-[2-(3-pyridin-2-yl-phenyl)acetyl]-azepan-4-ylcarbamoyl}-butyl)amide] |  |  | 3
15 | COc1ccc(S(=O)(=O)N2CCC[C@@H](NC(=O)[C@H](CC(C)C)NC(=O)c3ccc(OC)c(OC)c3)C(=O)C2)cc1 [Example 107, 3,4-Dimethoxy-N—{(S)-1-[1-(4-methoxy-benzenesulfonyl)-3-oxo-azepan-4-ylcarbamoyl]-3-methyl-butyl}-benzamide] |  |  | 5.9
16 | COc1cccc2cc(C(=O)N[C@@H](CC(C)C)C(=O)N[C@H]3CCCN(S(=O)(=O)c4ccc(Cl)cc4)CC3=O)oc12 [Example 133, 7-Methoxy-benzofuran-2-carboxylic acid-{(S)-1-[1-(4-chloro-benzenesulfonyl)-3-oxo-azepan-4-ylcarbamoyl]-3-methyl-butyl}-amide] |  |  | 3.4
17 | O=C(N[C@@H](CC1CCCCC1)C(=O)N[C@H]1CCCN(S(=O)(=O)c2cccc[n+]2[O-])CC1=O)c1ccc(-c2cccc(C(F)(F)F)c2)o1 [Example 169, 5-(3-Trifluoromethyl-phenyl)-furan-2-carboxylic acid {(S)-2-cyclohexyl-1-[3-oxo-1-(1-oxy-pyridine-2-sulfonyl)-azepan-4-ylcarbamoyl]-ethyl}-amide] |  |  | 43
18 | CC(C)C[C@@H](NC(=O)c1ccc(-c2cccc(C(F)(F)F)c2)o1)C(=O)N[C@@H]1CCCN(S(=O)(=O)c2cccc[n+]2[O-])CC1=O [Example 119, 5-(3-Trifluoromethyl-phenyl)-furan-2-carboxylic acid {(S)-3-methyl-1-[3-oxo-1-(1-oxy-pyridine-2-sulfonyl)-azepan-4-ylcarbamoyl]-butyl}amide] |  | 5.1 | 8.1
19 | CC(C)C[C@H](NC(=O)c1cnc2ccccc2n1)C(=O)NC1CCCN(C(=O)Nc2ccccc2F)CC1=O (stereo partly drawn) [Example 217, Quinoxaline-2-carboxylic acid {(S)-1-[1-(2-fluoro-phenylcarbamol)-3-oxo-azepan-4-ylcarbamoyl]-3-methyl-butyl}-amide] | 11 | 6.7 | 
20 | CC(C)C[C@H](NC(=O)c1cc2ccccc2o1)C(=O)N[C@H]1C[C@H](C)CN(S(=O)(=O)c2ccccn2)CC1=O (single isomer, unassigned) [Example 173] | 2 | 2.2 | 
21 | CC(C)C[C@H](NC(=O)c1ccc(-c2cccc(C(F)(F)F)c2)o1)C(=O)N[C@@H]1CCCN(S(=O)(=O)c2ccccn2)CC1=O [Example 66, 5-(3-Trifluoromethyl-phenyl)-furan-2-carboxylic acid {(S)-3-methyl-1-[3-oxo-1-(pyridine-2-sulfonyl)-azepan-4-ylcarbamoyl]-butyl}amide] |  | 5.1 | 10
22 | CC(C)C[C@@H](NC(=O)c1cc2ccccc2o1)C(=O)N[C@@H]1CCCN(S(=O)(=O)c2cccc[n+]2[O-])CC1=O [Example 49] | 5.6 | 3.1 | 
